What was measured:
[1] = system: human normal umbilical vein vascular endothelial cells co-cultured with human normal dermal fibroblasts; assay: Angiogenesis inhibitory effect test (angiogenesis kit, number of luminal branching, VEGF-A); assay type: cell-based; conditions: VEGF-A (+) 10 ng/mL
Experimental: The pharmacological effect, i.e., angiogenesis inhibitory effect of the hawthorn extract was evaluated by measuring a decrease of the number of vascular branching by means of image analysis as follows. At first, human normal umbilical vein vascular endothelial cells were co-cultured with human normal dermal fibroblasts at a constant ratio using the angiogenesis kit (product of KURABO INDUSTRIES LTD.) to a proliferative state at the early stage of lumen formation. The test sample, the hawthorn extract (fruits) (HAWTHORN EXTRACT POWDER MF, product of MARUZEN PHARMACEUTICALS CO., LTD.), was added to media so as to have concentrations described in Table 2 in the presence of 10 ng/mL of vascular endothelial cell growth factor-A (VEGF-A) (product of KURABO INDUSTRIES LTD.), followed by incubation at 37° C. and 5% CO2. […] The CD31 (PECAM-1) in HUVEC cells was stained with the lumen staining kit (CD31, product of KURABO INDUSTRIES LTD.) The stained cells in the wells were photographed and counted for the number of luminal branching. Based on the thus-obtained number of luminal branching, the angiogenesis inhibitory effect was evaluated.

[2] = target: T1, Tie2 (Homo sapiens, UniProt Q02763); assay: Tie2 activating effect (immunoassay) test in HUVECs; assay type: cell-based
T1 construct: endogenous in cells; host or cells: HUVEC (human umbilical vein endothelial cells)
Experimental: The pharmacological effect of the hawthorn extract was evaluated by detecting the amount of phosphorylated Tie2 protein. The phosphorylated Tie2 protein was quantified by means of an immunochemical method including an immunoassay. The method was performed as follows.
At first, normal human umbilical vein endothelial cells (HUVECs) were cultured to confluent, inoculated into a 96-well plate at 2.0×10^4 cells/0.1 mL/well, and then cultured over night in a low-serum growth medium for vascular endothelial cells (HUMEDIA-EG2, product of KURABO INDUSTRIES LTD.) Next, the low-serum growth medium was replaced by 0.1 mL of a basal medium for vascular endothelial cells (HUMEDIA-EB2, product of KURABO INDUSTRIES LTD.) at 3 hours before cell stimulation (addition of test samples), and the post-cultured HUVECs were again cultured therein. […] After completion of the incubation, the amount of phosphorylated Tie2 and the total amount of Tie2 in the cells were measured by the immunoassay kit (HUMAN PHOSPHO-TIE2 (Y992) IMMUNOASSAY, product of R&D Systems) according to a manufacturer's protocol to thereby calculate the ratio of the amount of phosphorylated Tie2 to the total amount of Tie2.
Similarly, the ratio of the amount of phosphorylated Tie2 to the total amount of Tie2 was calculated in the case of using dimethyl sulfoxide (DMSO) as a negative control. […]

T1 sequence (Q02763 23-1124): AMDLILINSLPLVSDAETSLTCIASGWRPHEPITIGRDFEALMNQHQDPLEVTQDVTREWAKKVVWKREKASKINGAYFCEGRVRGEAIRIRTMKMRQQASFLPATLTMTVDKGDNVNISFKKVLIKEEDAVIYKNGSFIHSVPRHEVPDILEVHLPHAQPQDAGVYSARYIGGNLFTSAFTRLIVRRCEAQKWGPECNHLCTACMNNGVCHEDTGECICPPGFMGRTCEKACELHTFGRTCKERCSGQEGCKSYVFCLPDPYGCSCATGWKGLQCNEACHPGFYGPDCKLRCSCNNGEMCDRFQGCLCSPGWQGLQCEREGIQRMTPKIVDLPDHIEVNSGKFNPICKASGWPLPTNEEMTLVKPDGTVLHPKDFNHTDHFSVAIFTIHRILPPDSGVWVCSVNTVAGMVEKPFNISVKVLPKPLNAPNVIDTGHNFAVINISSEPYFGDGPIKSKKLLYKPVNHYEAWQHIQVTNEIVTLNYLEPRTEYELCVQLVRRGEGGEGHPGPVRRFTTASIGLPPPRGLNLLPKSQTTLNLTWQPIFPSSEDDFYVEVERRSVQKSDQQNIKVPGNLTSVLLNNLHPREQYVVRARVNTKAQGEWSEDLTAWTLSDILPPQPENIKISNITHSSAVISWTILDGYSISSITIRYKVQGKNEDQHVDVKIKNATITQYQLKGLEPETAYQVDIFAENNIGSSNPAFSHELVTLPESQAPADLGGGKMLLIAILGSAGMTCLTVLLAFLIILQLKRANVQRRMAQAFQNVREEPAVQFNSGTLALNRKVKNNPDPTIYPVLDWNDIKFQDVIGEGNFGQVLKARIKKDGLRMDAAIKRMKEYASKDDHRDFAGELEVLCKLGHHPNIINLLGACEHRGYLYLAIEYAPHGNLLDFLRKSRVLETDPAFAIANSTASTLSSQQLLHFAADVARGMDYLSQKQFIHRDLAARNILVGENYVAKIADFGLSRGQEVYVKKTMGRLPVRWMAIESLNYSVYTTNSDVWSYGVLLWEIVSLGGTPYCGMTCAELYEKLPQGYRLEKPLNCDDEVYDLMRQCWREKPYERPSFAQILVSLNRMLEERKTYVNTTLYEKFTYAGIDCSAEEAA

| Molecule | Number of vascular branching ([1]; 50 μM, Means ± S.E., n = 3) | inhibition at 50 µM ([1]; Homo sapiens, read-out: Angiogenesis inhibitory rate (%)) [%] | Activation rate of Tie2 (%) ([2]; 0.5 μg/mL, 10 min, negative control DMSO = 100, Means ± S.E., n = 4) | Tie2 activating effect (immunoassay), in words ([2]; immunoassay kit) |
| --- | --- | --- | --- | --- |
| Cc1ccc(C(=O)Nc2ccc(S(=O)(=O)O)c3cc(S(=O)(=O)O)cc(S(=O)(=O)O)c23)cc1NC(=O)c1cccc(NC(=O)Nc2cccc(C(=O)Nc3cc(C(=O)Nc4ccc(S(=O)(=O)O)c5cc(S(=O)(=O)O)cc(S(=O)(=O)O)c45)ccc3C)c2)c1 [Suramin] | 30.0 ± 4.0 | 70.8 |  |  |
| Angiopoietin-1: Angiopoietin-1 (product of R&D Systems, Inc.) as a positive control (protein, UniProt Q15389 16-498, looked up) Angiopoietin-1: HIGCSNQRRSPENSGRRYNRIQHGQCAYTFILPEHDGNCRESTTDQYNTNALQRDAPHVEPDFSSQKLQHLEHVMENYTQWLQKLENYIVENMKSEMAQIQQNAVQNHTATMLEIGTSLLSQTAEQTRKLTDVETQVLNQTSRLEIQLLENSLSTYKLEKQLLQQTNEILKIHEKNSLLEHKILEMEGKHKEELDTLKEEKENLQGLVTRQTYIIQELEKQLNRATTNNSVLQKQQLELMDTVHNLVNLCTKEGVLLKGGKREEEKPFRDCADVYQAGFNKSGIYTIYINNMPEPKKVFCNMDVNGGGWTVIQHREDGSLDFQRGWKEYKMGFGNPSGEYWLGNEFIFAITSQRQYMLRIELMDWEGNRAYSQYDRFHIGNEKQNYRLYLKGHTGTAGKQSSLILHGADFSTKDADNDNCMCKCALMLTGGWWFDACGPSNLNGMFYTAGQNHGKLNGIKWHYFKGPSYSLRSTTMMIRPLDF |  |  | 130.2 ± 8.3 | verified to be phosphorylated and thus activated |
